Reference: patent publication US20130296311A1, “INHIBITORS OF HCV NS5A” (PRESIDIO PHARMACEUTICALS, INC., priority 2010, published 2013)
Read-outs that look alike come from different tables or passages of the source.

Tested on: HCV 1b_Huh-Luc/Neo-ET cell line persistently expressing a bicistronic genotype 1b replicon in Huh 7 cells
Experiment: HCV replicon assay (luciferase readout, 72 h)
Type: cell-based, HCV genotype 1b
Settings: Hepatitis C virus
Description: Biological activity of the compounds of the invention was determined using an HCV replicon assay. The HCV 1b_Huh-Luc/Neo-ET cell line persistently expressing a bicistronic genotype 1b replicon in Huh 7 cells was obtained from ReBLikon GMBH. This cell line was used to test compound inhibition using luciferase enzyme activity readout as a measurement of compound inhibition of replicon levels.
On Day 1 (the day after plating), each compound is added in triplicate to the cells. Plates incubated for 72 h prior to running the luciferase assay. Enzyme activity was measured using a Bright-Glo Kit (cat. number E2620) manufactured by Promega Corporation. The following equation was used to generate a percent control value for each compound.
% Control=(Average Compound Value/Average Control)*100
The EC50 value was determined using GraphPad Prism and the following equation:
Y=Bottom+(Top-Bottom)/(1+10̂((LogIC50−X)*HillSlope))
EC50 values of compounds are determined several times in the replicon assay.
Example compounds of the disclosed invention are illustrated in Tables 1-16 attached as appendices. The tables show inhibitory activity of many of the example compounds with respect to HCV 1b. […] The tables further provide mass spectrometry results for the synthesized example compounds.

[1] = Huh-7, 72 h, read-out: Inhibition of HCV genotype 1b
[2] = Huh-7, read-out: Inhibition of HCV genotype 1b

| Structure (SMILES) | EC50 [1] [nM] | EC50 [2] [nM] |
| --- | --- | --- |
| COC(=O)N[C@H](C(=O)N1CCC[C@H]1c1ncc(-c2ccc(C#Cc3ccc(-c4cnc([C@@H]5CCCN5C(=O)[C@H](NC(=O)N5CCC(C)(O)CC5)c5ccccc5)[nH]4)cc3)cc2)[nH]1)C(C)C [Compound 992] | < 1 | – |
| CC(C)[C@@H](NC(=O)C1CC1)C(=O)N1CCC[C@H]1C(=O)Nc1ccc(C#Cc2cnc([C@@H]3CCCN3C(=O)[C@H](NC(=O)C3CC3)C(C)C)[nH]2)cc1 [Compound 116] | 1 to 9.9 | – |
| COC(=O)N[C@H](C(=O)N1CCC[C@H]1c1nc2ccc(C#Cc3ccc(-c4cnc([C@@H]5CCCN5C(=O)[C@H](c5ccccc5)N(C)C)[nH]4)cc3)cc2[nH]1)C(C)C [Compound 864] | < 1 | – |
| COC(=O)N[C@H](C(=O)N1CCC[C@H]1c1nc(C)c(C#Cc2ccc3cc(-c4cnc([C@@H]5CCCN5C(=O)[C@@H](NC(=O)OC)[C@@H](C)OC)[nH]4)ccc3c2)[nH]1)C(C)C [Compound 1264] | – | < 1 |
| COC(=O)N[C@H](C(=O)N1C[C@H](F)C[C@H]1c1ncc(-c2ccc(C#Cc3ccc4nc([C@@H]5CCCN5C(=O)[C@@H](NC(=O)OC)C(C)C)[nH]c4c3)cc2)[nH]1)C(C)C [Compound 1040] | < 1 | – |
| C[C@H](NC(=O)[C@@H]1CCCN1C(=O)[C@H](NC(=O)OC(C)(C)C)c1ccccc1)c1ccc(C#Cc2ccc(-c3cnc([C@@H]4CCCN4C(=O)[C@H](NC(=O)OC(C)(C)C)c4ccccc4)[nH]3)cc2)cc1 [Compound 169] | 1 to 9.9 | – |
| C[C@@H](c1ncc(-c2ccc(C#Cc3ccc(-c4cnc([C@@H]5CCCN5C(=O)[C@H](NC(=O)C5CC5)c5ccccc5)[nH]4)cc3)cc2)[nH]1)N(C)C(=O)[C@H](NC(=O)C1CC1)c1ccccc1 [Compound 278] | < 1 | – |
| C=CC[C@H](NC(=O)OC)C(=O)N1CCC[C@H]1c1nc2ccc(C#Cc3ccc4c(ccc5nc([C@@H]6CCCN6C(=O)[C@@H](NC(=O)OC)C(C)C)[nH]c54)c3)cc2[nH]1 [Compound 1277] | – | < 1 |
| C(#Cc1ccc2nc([C@@H]3CCCN3Cc3ccccc3)[nH]c2c1)c1ccc(-c2cnc([C@@H]3CCCN3Cc3ccccc3)[nH]2)cc1 [Compound 1052] | > 1000 | – |
| COC(=O)N[C@H](C(=O)N1CCC[C@H]1c1nc2c([nH]1)-c1ccc(C#Cc3ccc(-c4cnc([C@@H]5CCCN5C(=O)[C@@H](NC(=O)OC)C5CCOCC5)[nH]4)cc3)cc1CCC2)C(C)C [Compound 1097] | < 1 | – |
| O=C(N[C@@H](C(=O)N1CCC[C@H]1c1ncc(-c2ccc(C#Cc3ccc(-c4cnc([C@@H]5CCCN5C(=O)[C@@H](c5ccccc5)N5CCCCC5)[nH]4)cc3)cc2)[nH]1)c1ccccc1)C1CC1 [Compound 208] | < 1 | – |
| CN(C)[C@@H](C(=O)N1CCC[C@H]1c1ncc(C#Cc2ccc(C#Cc3cnc([C@@H]4CCCN4C(=O)[C@@H](c4ccccc4)N(C)C)[nH]3)cc2)[nH]1)c1ccccc1 [Compound 305] | < 1 | – |
| COC(=O)N[C@@H](C(=O)N1CCC[C@H]1c1ncc(-c2ccc3nc(C#Cc4ccc5nc([C@@H]6CCCN6C(=O)[C@H](NC(=O)OC)c6ccccc6)[nH]c5c4)ccc3c2)[nH]1)c1ccccc1 [Compound 1109] | < 1 | – |
| COC(=O)N[C@H](C(=O)N1CCC[C@H]1c1ncc(-c2ccc(C#Cc3ccc4nc([C@@H]5CCCN5C(=O)[C@@H](NC(=O)OC)C5CCCC5)[nH]c4n3)cc2)[nH]1)C1CCCC1 [Compound 1250] | – | < 1 |
| COC(=O)N[C@H](C(=O)N[C@@H](C)c1ncc(-c2ccc(C#Cc3ccc4nc([C@@H]5CCCN5C(=O)[C@@H](NC(=O)OC)C(C)C)[nH]c4c3)cc2)[nH]1)C(C)C [Compound 1225] | – | < 1 |
| COC(=O)N[C@@H](CCC(N)=O)C(=O)N1CCC[C@H]1c1ncc(-c2ccc(C#Cc3ccc4nc([C@@H]5CCCN5C(=O)[C@H](CCC(N)=O)NC(=O)OC)[nH]c4c3)cc2)[nH]1 [Compound 1051] | 1 to 9.9 | – |
| COC(=O)N[C@H](C(=O)N1CCC[C@H]1c1nc2ccc(C#Cc3ccc(-c4cnc([C@@H]5CCCN5C(=O)[C@H](NC(=O)OC)C(C)C)[nH]4)cc3)cc2[nH]1)C(C)C [Compound 1053] | < 1 | – |
